Kd, TΔS and ΔH data for one compound are collected here from paper PMC7726757 (ACS Omega, 2020).

Broadly, the Kd is a measure of binding affinity in units of concentration.

Common to all, as to assay: Isothermal titration calorimetry
For orientation: ITC needs no label: the signal is the heat of the interaction.

The target in one experiment is T1, Pm-NanK (Pasteurella multocida, UniProt Q9CKB3, M259T).
T1 sequence (Q9CKB3 1-297 M259T): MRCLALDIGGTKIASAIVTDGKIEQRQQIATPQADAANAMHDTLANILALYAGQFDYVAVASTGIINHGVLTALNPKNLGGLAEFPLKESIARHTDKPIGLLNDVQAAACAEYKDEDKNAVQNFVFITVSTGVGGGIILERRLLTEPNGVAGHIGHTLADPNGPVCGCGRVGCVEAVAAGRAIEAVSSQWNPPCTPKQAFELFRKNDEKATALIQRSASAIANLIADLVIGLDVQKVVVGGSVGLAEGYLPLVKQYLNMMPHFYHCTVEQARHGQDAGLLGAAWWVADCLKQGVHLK
The experiment is classed as binding, P. multocida.

Another experiment concerns the target T2, Vc-NanK (Vibrio cholerae serotype O1, UniProt Q9KR61).
T2 sequence (Q9KR61 1-287): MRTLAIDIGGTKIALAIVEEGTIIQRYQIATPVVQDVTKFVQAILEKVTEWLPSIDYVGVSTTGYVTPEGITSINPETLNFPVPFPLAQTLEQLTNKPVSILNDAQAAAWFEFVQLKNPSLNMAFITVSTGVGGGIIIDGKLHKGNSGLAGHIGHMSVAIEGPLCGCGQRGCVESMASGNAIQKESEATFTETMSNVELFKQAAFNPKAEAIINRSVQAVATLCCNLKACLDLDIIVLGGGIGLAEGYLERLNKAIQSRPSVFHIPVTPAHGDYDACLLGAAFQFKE
It counts as binding, V. cholera.

The target in the next experiment is T3, Fn-NanK (Fusobacterium nucleatum, UniProt Q8RDN7).
T3 sequence (Q8RDN7 1-291): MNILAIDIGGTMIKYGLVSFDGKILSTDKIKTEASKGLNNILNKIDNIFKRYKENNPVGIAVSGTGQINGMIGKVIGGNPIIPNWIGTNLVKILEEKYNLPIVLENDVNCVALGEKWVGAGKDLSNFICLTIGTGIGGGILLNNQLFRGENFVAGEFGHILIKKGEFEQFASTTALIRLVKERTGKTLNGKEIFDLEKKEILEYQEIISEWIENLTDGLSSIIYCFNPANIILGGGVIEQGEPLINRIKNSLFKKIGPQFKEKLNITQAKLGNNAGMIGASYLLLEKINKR
It counts as binding, F. nucleatum. To be noted: Fn-NanK wild type.

In the next experiment the target is T4, Hi-NanK (Haemophilus influenzae, UniProt Q4QP43).
T4 sequence (Q4QP43 1-300): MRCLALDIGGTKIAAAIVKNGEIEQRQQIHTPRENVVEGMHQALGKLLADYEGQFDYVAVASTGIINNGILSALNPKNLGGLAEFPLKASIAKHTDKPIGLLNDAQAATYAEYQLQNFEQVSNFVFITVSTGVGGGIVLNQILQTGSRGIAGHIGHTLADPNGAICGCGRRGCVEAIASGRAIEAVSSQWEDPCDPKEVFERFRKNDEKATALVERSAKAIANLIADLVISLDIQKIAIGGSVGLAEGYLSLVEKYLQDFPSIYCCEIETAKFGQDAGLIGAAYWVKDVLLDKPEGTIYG
The experiment is classed as binding, H. influenzae.

The mark [1] stands for this setting: Hi-NanK wild type, ligand alone.
The mark [2] stands for this setting: Hi-NanK, in the presence of ManNAc.

With `Nc1ncnc2c1ncn2[C@@H]1O[C@H](COP(=O)(O)OP(=O)(O)NP(=O)(O)O)[C@@H](O)[C@H]1O` [AMPPNP, adenylyl-imidodiphosphate], the Kd at Pm-NanK (in the presence of ManNAc) was 112 ± 14.5 µM; on Pm-NanK (ligand alone) it was “no measurable binding”; on Vc-NanK (in the presence of ManNAc) it was 44 ± 9.2 µM; on Vc-NanK (ligand alone), “no measurable binding”; on Fn-NanK (in the presence of ManNAc), 35 ± 1.12 µM; on Fn-NanK (ligand alone), 61 ± 7.48 µM. Moreover, the Kd on Hi-NanK (setting [1]) turned out to be 53 ± 6.4 µM; at Hi-NanK (setting [2]) it was 72 ± 12 µM. Also, the TΔS at Pm-NanK (in the presence of ManNAc) is 1.1 kcal/mol; at Vc-NanK (in the presence of ManNAc), 3.814 kcal/mol; on Fn-NanK (in the presence of ManNAc) it was “–2.87 Kcal/mol”; on Fn-NanK (ligand alone) it was 2.13 kcal/mol; on Hi-NanK (setting [1]) it was “–1.85 Kcal/mol”; at Hi-NanK (setting [2]), 1.94 kcal/mol. Further, the ΔH result on Pm-NanK (in the presence of ManNAc) was “–4.3 ± 0.35 Kcal/mol”; on Vc-NanK (in the presence of ManNAc) it was “–2.1 ± 0.482 Kcal/mol”; on Fn-NanK (in the presence of ManNAc), “–8.94 ± 0.18 Kcal/mol”; on Hi-NanK (setting [1]), “–7.7 ± 2.44 Kcal/mol”; at Hi-NanK (setting [2]), “–3.7 ± 0.68 Kcal/mol”.
